# Assays:
# [1] = CT imaging of IB contrast injection (marrow flow, venous drainage, leakage); type: in vivo, domestic swine (Sus scrofa domesticus)
# Method: To evaluate flow through the bone marrow cavity, abdominal vessels were identified using iopamidol-370 contrast injected into the distal abdominal aorta via a 5Fr Glidecath (Terumo Medical Corporation, Somerset, N.J.) inserted in the internal carotid artery. To evaluate the anatomy of the veins, iopamidol-370 contrast was injected IB under anesthesia (boluses of 5 or 10 ml at rates of 0.1 to 2.5 ml/s) while scanning with 320-row detector CT (Aquilion ONE™, Toshiba Medical, Japan). Pulmonary artery, carotid artery and intra-marrow pressures were monitored and recorded continuously both during and after injection of contrast media. In select animals, vascular occluders (In Vivo Metric, Healdsburg, Calif.) were placed around the terminal branches of the abdominal aorta to selectively control flow through the internal or external iliac arteries, and around the iliac veins to control venous drainage from the pelvis. […]
# To evaluate flow through the marrow and venous drainage, direct intra-bone injection into the hemipelvis with iopamidol-370 contrast was performed under anesthesia with dynamic CT images acquired using a 320-detector row scanner (Aquilion One, Toshiba Medical, Japan). Human CD34+ and swine BM MNCs were labeled with Zirconium-89 (^89Zr), and were then assessed for viability, cell number, and the level of cellular radioactivity.
# [2] = PET/CT in vivo distribution of radioactivity after IV, IB or intra-arterial administration in swine; parameters: species or system domestic swine (Sus scrofa domesticus)
# Method: Animals were heparinzed to an ACT of 300 seconds or greater and were started with deferoxamine IV infusion (5 mg/kg/hr) to chelate any free ^89Zr that may potentially be released from fragmented cells. PET scans were performed using a Gemini TF clinical PET/CT scanner (Philips Medical Systems, Andover, Mass.). Following injection, animals were imaged in 3-dimensional (3D) time-of-flight mode with a spatial resolution of 4.8 mm at the center of the field of view. The images were reconstructed using the default row-action maximum-likelihood algorithm iterative reconstruction, with standard corrections for random, scatter, attenuation, and normalization. Three volumes of interest (VOI) were manually drawn within the swine PET/CT scans. One VOI enclosing the intra-pelvic bone volume near the injection site, another VOI enclosing the extra-pelvic bone volume and the last VOI for the lung volume. The sum of measured activities of the three volumes equals the total injected radioactivity into the swine. Thus, the percent-injected dose (% ID) within each VOI was estimated by dividing each VOI by the sum of the three VOIs and multiplying by 100. The percent-injected dose for each of the three regions is reported herein.
# [3] = Control group, IB injection without cells, pig 32590, after the first hour
Compound,"Contrast distribution on CT ([1]; IB injection at rates exceeding 0.2 ml/s, volumes >10 ml, or by hand)",Contrast distribution on dynamic CT ([1]; manual sequential hand intra-bone injection of 5 ml aliquots at two sites in the ipsilateral iliac crest),"Extra-pelvic bone VOI (Max) [2, 3]","Extra-pelvic bone VOI (Mean) [2, 3]","Intra-pelvic bone % ID [2, 3] [% ID]","Intra-pelvic bone VOI (Max) [2, 3]","Intra-pelvic bone VOI (Mean) [2, 3]","Intra-pelvic bone total radioactivity [2, 3] [counts]","Lung % ID [2, 3] [% ID]","Lung VOI (Mean) [2, 3]","Lung total radioactivity [2, 3] [counts]","Intra-pelvic bone % ID ([2]; Control group, IB injection without cells, pig 32590, after the first hour, listed as 89Zr—Df) [% ID]","Location of radioactivity, fusion PET/CT ([2]; IB injection without cells, 1 hr)","Radioactivity within the renal collecting system, ureters and bladder ([2]; IB injection without cells, first hour) [% ID]",Excretion of radioactivity ([2]; IV injection without cells),"Retention in the lungs ([2]; IV or IB administration without cells, first hour)"
"C[C@H](O)C(=O)Nc1c(I)c(C(=O)NC(CO)CO)c(I)c(C(=O)NC(CO)CO)c1I [iopamidol-370 contrast, iopamidol-370]",extrabone contrast leakage at the site of injection,leakage from the initial access site after the first injection as well as immediate drainage into the ipsilateral iliac vein,,,,,,,,,,,,,,
^89Zr-deferoxamine [^89Zr-Df],,,91.45,15.32,33.5,338.9,314.42,1085.85,0.0,0,0,33.5,radioactivity in the renal pelvises and bladder,66.5,rapid renal excretion,no retention
